From PMC12655172, “Borylated 5-Membered Ring Iminosugars: Synthesis and Biological Evaluation for Glycosidase Inhibition and Anticancer Properties for Application in Boron Neutron Capture Therapy (BNCT)—Part 2” (Pharmaceuticals, 2025)

What was measured:
Type in all cases: biochemical
several glycosidases = assay: Glycosidase inhibition, whole Table 3 panel; details: Table 3 assay conditions
Method: All enzymes and para-nitrophenyl substrates were purchased from Sigma. Enzymes were assayed at 27 °C in citric acid (0.1 M)/disodium hydrogen phosphate (0.2 M) buffers at the optimum pH for the enzyme. The incubation mixture consisted of […] of 1 mg/mL aqueous solution of extract and […] of the appropriate […] para-nitrophenyl substrate made up in buffer at the optimum pH for the enzyme. The reactions were stopped by addition of […] 0.4 M glycine (pH 10.4) during the exponential phase of the reaction, which had been determined at the beginning using uninhibited assays in which water replaced the inhibitor. Final absorbances were read at 405 nm using a Versamax microplate reader (Molecular Devices, Wokingham, UK). Assays were carried out in triplicate, and the values given are means of the three replicates per assay. All reactions were run in water.

[1] = test system: α-D-glucosidase (Bacillus); assay: Glycosidase inhibition (Table 3 panel); details: 1 mg/mL aqueous solution; run in water
How it was run: (§1)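 Each glycosidase received […] para-nitrophenyl substrate in citrate/phosphate buffer at its optimum pH plus 1 mg/mL extract solution, at 27 °C. After stopping with glycine (pH 10.4) during the exponential phase, 405 nm absorbance was read; values are means of three replicates.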

[2] = test system: N-acetyl-β-D-glucosaminidase (bovine kidney); assay: Glycosidase inhibition (Table 3 panel); details: 1 mg/mL aqueous solution; run in water
How it was run: as §1

Molecule	Inhibition over the glycosidases of Table 3 (several glycosidases)	Percentage inhibition α-D-Glucosidase Bacillus [1] [%]	Percentage inhibition N-Acetyl-β-D-glucosaminidase Bovine Kidney [2] [%]
N[C@@H](Cc1ccc(B(O)O)cc1)C(=O)O [BPA, 4-borono-L-phenylalanine, reference compound]	< 30%	19.9	6.7
N[C@@H](Cc1ccc(B(O)O)cc1)C(=O)O [^10B-BPA, reference compound]	< 30%	19.5	6.3
Borocaptate sodium [BSH, reference compound]	31.6–65.9%	48.1	37.1
